These results are taken from PubChem BioAssay (NCI).

Assay in all cases: NCI tumour cell line growth inhibition, 48 h
The test system of assay [1] is RPMI-8226 leukemia.
In assay [2] the test system is SNB-75 CNS.
Assay [3] has as its system NCI-H23 lung.
Assay [4] deals with KM12 colon.
In assay [5] the test system is SF-268 CNS.
For assay [6], the system named is SF-539 CNS.
For assay [7], the system named is MOLT-4 leukemia.
Assay [8] relates to PC-3 prostate.
Assay [9] concerns RXF 393 renal.
Assay [10] has as its system A549 NSCLC.

Structures are written as SMILES.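 In this assay, cells in 96-well plates receive the compound at five concentrations for 48 hours. Endpoints are linearly interpolated between the surrounding concentrations. Abbreviation: GI50, concentration required for 50% inhibition of growth. TGI: concentration producing complete growth inhibition.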

`NC(=O)c1ccc(N(C(N)=O)c2c(F)cccc2F)nc1-c1ccc(F)cc1F`: the GI50 in [1], in assay [2], in assay [3], in [4], in assay [5] and in [6] was above 100 µM each time. Besides, the GI50 in assay [7], in [8], in assay [9] and in assay [10] was above 100 µM throughout. Moreover, the TGI in [1], in assay [2], in assay [3], in assay [4], in [5] and in [6] was above 100 µM throughout. In addition, the TGI in assay [7], in assay [8], in [9] and in assay [10] was above 100 µM in each case.

As for `C=CC(C)(O)CC/C=C(\CO)C(=O)OC1C(C)OC(O[C@](C)(C=C)CC/C=C(\CO)C(=O)O[C@H]2C[C@@]3(C(=O)OC4OC(CO)C(O)C(O)C4OC4OC(C)C(OC5OC(CO)C(O)C5O)C(OC5OC(CO)C(O)C(O)C5O)C4O)C(CC2(C)C)C2=CCC4[C@@]5(C)CC[C@H](OC6OC(COC7OC(C)C(O)C(O)C7OC7OCC(O)C(O)C7O)C(O)C(O)C6NC(C)=O)C(C)(C)C5CC[C@@]4(C)[C@]2(C)C[C@H]3O)C(O)C1O` (stereo partly specified), the GI50 was 5 µM in assay [1]; 0.154 µM in assay [2]; 2.01 µM in assay [3]; 0.285 µM in [4]; 0.174 µM in [5]; 4.86 µM in assay [6]. In addition, the GI50 in assay [7] was 0.886 µM; in assay [8], 0.078 µM; in [9], 0.754 µM; in assay [10] it was 0.286 µM. The TGI in [1] stood at 18 µM; in [2] it was 0.894 µM; in [3], 7.49 µM; in assay [4], 1.98 µM; in [5], 0.893 µM; in assay [6], 9.77 µM. The TGI in assay [7] was found to be 12.9 µM; in assay [8], 1.97 µM; in assay [9], 4.03 µM; in assay [10], 1.49 µM.

`O=C(CCCCCCCCC(=O)N/N=C\c1cc(Cl)ccc1O)N/N=C\c1cc(Cl)ccc1O`: the GI50 in assay [1] is 0.847 µM; in assay [2], 15.6 µM; in assay [3] it was 0.636 µM; in assay [4] it was 0.594 µM; in assay [5], 0.223 µM; in [6], 0.339 µM. Also, the GI50 was 0.222 µM in [7], 0.864 µM in assay [8], 0.208 µM in assay [9] and 0.98 µM in [10]. For the same molecule, the TGI was above 100 µM in assay [1]; above 65.9 µM in assay [2]; above 67.3 µM in assay [3]; above 100 µM in assay [4]; above 100 µM in assay [5]; above 46.8 µM in [6]. In addition, the TGI was 17.6 µM in [7], above 100 µM in [8], 7.78 µM in [9] and above 100 µM in assay [10].

Take `Cn1cc(NC(=O)Nc2cc(C(=O)Nc3cc(C(=O)Nc4cc(S(=O)(=O)O)c5cc(S(=O)(=O)O)cc(S(=O)(=O)O)c5c4)n(C)c3)n(C)c2)cc1C(=O)Nc1cc(C(=O)Nc2cc(S(=O)(=O)O)c3cc(S(=O)(=O)O)cc(S(=O)(=O)O)c3c2)n(C)c1`: the TGI in assay [1], in assay [2], in assay [3], in assay [4], in assay [5] and in [6] was above 100 µM throughout. The TGI in [7], in assay [8], in assay [9] and in [10] was above 100 µM in each case.

On to `NS(=O)(=O)c1ccc(NC(=O)c2cccc(NC3=C(Cl)C(=O)N(Cc4ccccc4)C3=O)c2)cc1`, for which the GI50 is 3.51 µM in assay [1]; 19.4 µM in assay [2]; 6.83 µM in assay [4]; 11.7 µM in [5]; 11.3 µM in assay [6]; 2.09 µM in assay [7]. Further, the values for the GI50 in assay [8], in assay [9] and in assay [10] were 6.57 µM, 10.6 µM and 21.2 µM, respectively. In addition, the TGI in assay [1] is 14.7 µM; in [2], 45.3 µM; in assay [4], 26.5 µM; in assay [5], 32.4 µM; in assay [6] it was 26.7 µM; in [7], 7.99 µM. Besides, the TGI in [8] was found to be 29 µM; in [9] it was 33.9 µM; in assay [10], 52.3 µM.

As to `Cn1cc(C2=C(c3cn(CCCCC(=N)N)c4ccccc34)C(=O)NC2=O)c2ccccc21`, the GI50 in assay [1] is above 25 µM; in assay [2], 1.65 µM; in [3], above 25 µM; in assay [4], 20.3 µM; in assay [5] it was above 25 µM; in assay [6], above 21.6 µM. Besides, the GI50 was 22.1 µM in [7], above 25 µM in [8], above 25 µM in assay [9] and above 25 µM in assay [10]. Moreover, the TGI in assay [1], in assay [2], in assay [3], in assay [4], in assay [5] and in assay [6] was above 25 µM in each case. Further, the TGI in [7], in [8], in assay [9] and in assay [10] was above 25 µM throughout.

As to `O=C(C=C=Nc1ccccc1)C(=O)N=C=Cc1ccccc1`, the GI50 in [1] is 0.534 µM; in assay [2] it was 3.54 µM; in assay [3] it was 4.55 µM; in [4], 6.38 µM; in assay [5], 3.43 µM; in assay [6], 9.39 µM. The GI50 in assay [7] was 1.14 µM; in assay [8] it was 2.89 µM; in [10], 6.74 µM. For the same molecule, the TGI in [1] is 2.29 µM; in [2] it was 18.5 µM; in [3] it was 19.5 µM; in assay [4], 19.1 µM; in assay [5], 12.1 µM; in assay [6], 23 µM. Further, the TGI in assay [7] is 5.8 µM; in [8], 8.91 µM; in assay [9], 0.497 µM; in assay [10], 22.9 µM.

For `COc1cc(-c2cc(=O)c3c(O)c(OC)c(OC)c(OC)c3o2)cc(OC)c1OC`, the TGI was above 100 µM in assay [1]; 6.2 µM in assay [2]; above 62.5 µM in assay [3]; above 100 µM in [4]; above 100 µM in assay [5]; above 54.9 µM in assay [6]. Further, the TGI in assay [7] is above 100 µM; in assay [8] it was above 100 µM; in [9], 33.2 µM; in [10], above 100 µM.

For the molecule `O=C(/C=C/c1cccc2ccccc12)Nc1ncc(Cc2ccccc2)s1`, the GI50 in assay [1] was 1.09 µM; in assay [2], 0.344 µM; in [3] it was 1.58 µM; in assay [4], 0.866 µM; in assay [5], 2.61 µM; in assay [6] it was 0.716 µM. For the same molecule, the GI50 in assay [7] was 1.65 µM; in [8], 1.01 µM; in [9], 0.436 µM; in assay [10], 1.32 µM. Further, the TGI in [1] was above 100 µM; in assay [2], 1.55 µM; in assay [3], above 100 µM; in assay [4] it was above 100 µM; in assay [5] it was above 100 µM; in assay [6] it was 2.92 µM. Besides, the TGI is above 100 µM in assay [7], above 100 µM in assay [8], 1.66 µM in assay [9] and above 66.3 µM in [10].

In the case of `O=C(Nc1cccc(C(F)(F)F)c1)c1cc2ccccc2cc1O`, the GI50 in [1] is 0.354 µM; in assay [2], 2.25 µM; in assay [3], 0.67 µM; in [4], 2.45 µM; in assay [5], 2.7 µM; in assay [6], 2.25 µM. The GI50 was 3.37 µM in [7], 1.93 µM in [8], 3.3 µM in assay [9] and 2.7 µM in assay [10]. Further, the TGI was 2.15 µM in [1]; above 39.7 µM in assay [2]; 8.14 µM in assay [3]; 8.44 µM in assay [4]; above 100 µM in assay [5]; 70.2 µM in [6]. Moreover, the TGI is above 35.6 µM in assay [7], above 25.6 µM in assay [8], above 30.4 µM in assay [9] and above 61.6 µM in assay [10].

As to `CN(C(=O)CNC(=O)/C=C/c1cccc(Cl)c1)C1CCS(=O)(=O)CC1`, the GI50 in [1] was 14.8 µM; in assay [2] it was 3.02 µM; in assay [4], 7.99 µM; in [5], 65.1 µM; in [6], 7.28 µM; in [7], 2.12 µM. Besides, the GI50 in [8] is above 100 µM; in assay [9], 6.47 µM; in assay [10] it was above 100 µM. The TGI in [1], in assay [2], in assay [4], in assay [5], in assay [6] and in assay [7] was above 100 µM throughout. The TGI in assay [8] was above 100 µM; in [9], 40.7 µM; in [10], above 100 µM.

With `O=C(c1ccc2ccccc2c1)c1c(C(F)(F)F)n([O-])c2ccc(F)cc2[n+]1=O`, the GI50 in assay [1] was 0.997 µM; in [2] it was 1.47 µM; in [3] it was 0.574 µM; in [4] it was 0.673 µM; in [5], 1.73 µM; in assay [6], 1.88 µM. For the same molecule, the GI50 in assay [7] was 0.393 µM; in assay [8] it was 1.55 µM; in [9], 0.283 µM; in assay [10] it was 1.8 µM. The TGI in [1] came out at 3.93 µM; in [2] it was 2.82 µM; in assay [3], 1.91 µM; in assay [4], 2.46 µM; in assay [5], 3.37 µM; in assay [6], 3.32 µM. The TGI in assay [7] came to 1.97 µM; in assay [8] it was 3.39 µM; in assay [9], 0.958 µM; in [10], 3.41 µM.

As for `O=Cc1ccc(N2CCN(c3ccc(C=O)cc3)CC2)cc1`, the GI50 in [1], in assay [2], in assay [3], in assay [4], in [5] and in assay [6] was above 100 µM throughout. Besides, the GI50 in assay [7] was above 100 µM; in assay [8], above 100 µM; in assay [9], 67.2 µM; in [10], 40.1 µM. Besides, the TGI in [1], in [2], in [3], in assay [4], in assay [5] and in assay [6] was above 100 µM throughout. Moreover, the TGI in [7], in assay [8], in [9] and in assay [10] was above 100 µM each time.

In the case of `CCN(CC)Cc1cc(Nc2c3ccccc3nc3cc(Cl)ccc23)ccc1O`, the GI50 was 2.32 µM in assay [1]; 1.6 µM in assay [2]; 1.59 µM in assay [4]; 1.63 µM in assay [5]; 2.19 µM in assay [6]; 2.01 µM in assay [7]. Besides, the GI50 in assay [8] is 1.59 µM; in assay [9], 1.28 µM; in assay [10], 1.36 µM. Also, the TGI was determined as 6.27 µM in assay [1]; 2.97 µM in assay [2]; 3.77 µM in assay [4]; 3.13 µM in assay [5]; 4.58 µM in assay [6]; 53.5 µM in assay [7]. In addition, the TGI turned out to be 3.26 µM in [8], 2.58 µM in assay [9] and 4.26 µM in assay [10].

For the molecule `CN=C(N)N/N=C(\C)c1ccc2c(c1)Cc1ccccc1-2`, the GI50 in [1] was 1.72 µM; in assay [2] it was 2 µM; in assay [3] it was 2.84 µM; in assay [4] it was 1.72 µM; in [5], 2.13 µM; in assay [6], 1.66 µM. For the same molecule, the GI50 in assay [7] was 0.352 µM; in assay [8], 2.39 µM; in assay [9], 4.06 µM. The TGI is 4.16 µM in assay [1]; 7.01 µM in assay [2]; 12.3 µM in assay [3]; 3.47 µM in assay [4]; 5.25 µM in assay [5]; 3.02 µM in assay [6]. In addition, the TGI was 1.49 µM in [7], 10.3 µM in assay [8] and 66.5 µM in assay [9].
